Drawing on US8404736B2, “Heterocyclic amide derivatives as EP4 receptor antagonists” (Beta Pharma Canada Inc., priority 2008, dated 2013), this text covers inhibition for five compounds.

The assay deals with T1, EP4 receptor (Homo sapiens, UniProt P35408).
T1 construct: host or cells: HEK 293(ebna) according to the general protocol; cells used by the contract laboratory not given
The assay is described as follows: EP4 receptor binding assay (inhibition of [3H]PGE2 binding, MSD Pharma Service). The settings on record: 1 nM [3H] PGE2, Human recombinant Chem-1 cells; for inhibition at 0.01 µM: Tested Concentration 10 nM; for inhibition at 0.002 µM: Tested Concentration 2 nM. Here is the method:
Transfected HEK 293(ebna) cells are maintained in culture, harvested and membranes are prepared by differential centrifugation, following lysis of the cells in the presence of protease inhibitors, for use in receptor binding assays. Prostanoid receptor binding assays (for DP1, DP2 (CRTH2), EP1, EP2, EP3-III, EP4, FP, IP, and TP) are performed in 10 mM MES/KOH (pH 6.0) (EPs, FP and TP) or 10 mM HEPES/KOH (pH 7.4) (DPs and IP), containing 1 mM EDTA, 2.5-30 mM divalent cation and the appropriate radioligand. Synthetic compounds are added in dimethylsulfoxide which is kept constant at 1% (v/v) in all incubations. The reaction is initiated by addition of membrane protein. Non-specific binding is determined in the presence of 10 μM of the corresponding non-radioactive prostanoid. Incubations are conducted for 60-90 min at room temperature or 30° C. and terminated by rapid filtration. Specific binding is calculated by subtracting non specific binding from total binding. The residual specific binding at each ligand concentration is calculated and expressed as a function of ligand concentration in order to construct sigmoidal concentration-response curves. The binding affinity of the compounds is determined by calculating the equilibrium inhibition constant (Ki) from the equation Ki=InPt/1[radioligand]/Kd where Kd is the equilibrium dissociation constant for the radioligand:receptor interaction and InPt is the inflection point of the dose-response curves.
EP4 receptor binding assays were performed at MSD Pharma Service in Taiwan under the following assay conditions: […]

T1 sequence (P35408 whole entry): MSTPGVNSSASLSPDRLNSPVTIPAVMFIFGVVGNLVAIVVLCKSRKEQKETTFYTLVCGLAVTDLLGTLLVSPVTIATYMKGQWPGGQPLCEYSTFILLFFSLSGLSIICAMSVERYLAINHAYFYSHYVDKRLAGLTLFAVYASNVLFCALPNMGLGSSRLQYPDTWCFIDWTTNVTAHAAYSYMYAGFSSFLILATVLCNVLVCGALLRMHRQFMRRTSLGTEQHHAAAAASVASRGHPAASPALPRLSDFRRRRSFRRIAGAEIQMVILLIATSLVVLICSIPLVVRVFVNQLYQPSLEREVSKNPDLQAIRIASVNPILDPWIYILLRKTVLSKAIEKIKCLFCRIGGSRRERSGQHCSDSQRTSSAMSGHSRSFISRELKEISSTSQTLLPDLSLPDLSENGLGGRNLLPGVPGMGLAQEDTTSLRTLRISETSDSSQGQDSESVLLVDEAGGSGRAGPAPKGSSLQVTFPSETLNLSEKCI

Turning to `O=C(O)c1ccc(C2(NC(=O)c3cccc4c3N(Cc3ccc(C(F)(F)F)cc3)C(=O)C4)CC2)cc1`, the inhibition (as a rule, how much of the control response was suppressed) at 0.01 µM was found to be 83%.
Turning to `O=C(O)c1ccc(C2(NC(=O)c3csc4ccn(Cc5ccc(C(F)(F)F)cc5)c34)CC2)cc1`, the inhibition at 0.002 µM is 88%.
With `Cc1sc2ccn(Cc3ccc(C(F)(F)F)cc3)c2c1C(=O)NC(C)c1ccc(C(=O)O)cc1` (centres unmarked), the inhibition at 0.01 µM is 85%.
For `CC(NC(=O)c1csc2ccn(Cc3ccc(C(F)(F)F)cc3)c12)c1ccc(C(=O)O)cc1` (centres unmarked), the inhibition at 0.01 µM worked out at 87%.
Take `Cc1sc2ccn(Cc3ccc(C(F)(F)F)cc3)c2c1C(=O)NC1(c2ccc(C(=O)O)cc2)CC1`: the inhibition at 0.002 µM was 93%.
